Laboratory results as given in US8822216B2, “DNA regulatory element for the expression of transgenes in neurons of a subject and uses thereof” (priority 1997, dated 2014).
Values belong to the compound of their own block, whether it stands above or below them.

Experiments:
[1] = test system: NMDA receptors; assay: NMDA-mediated synaptic field potentials in hippocampal slices (DNQX, reduced Mg2+); type: cell-based, mouse
[2] = test system: Schaffer collateral-CA1 synapse; assay: Chemically induced slow-onset potentiation (L-LTP) in hippocampal slices; type: cell-based, mouse
Protocol: FIG. 13C) and FIG. 13D): Drug was added at the time indicated in both panels at a concentration of 100 µM. Each point in the time courses represents the mean fEPSP slope±SEM normalized to the average of the predrug fEPSP slope. Insets show representative fEPSP traces just before drug addition and 3 hours after.
Is this reduction due to a direct effect on downstream components of L-LTP, or is it due to a failure to fully initiate L-LTP? To begin to explore this question we examined L-LTP evoked by pharmacological activation of the […], which bypasses tetanic stimulation in area CA1. In addition to being evoked through multiple high frequency tetani to the Schaffer collaterals, L-LTP in area CA1 can be induced chemically through either application of D1/D5 dopamine receptor agonists or direct activators of adenylyl cyclase and PKA. In wild-type slices, application of agonists of D1/D5 dopamine receptors or the PKA agonist Sp-cAMPS, result in a slow-onset potentiation of synaptic transmission that is sensitive to protein and RNA-synthesis inhibitors, and mutually occlusive with L-LTP elicited by multiple high frequency trains (Huang and Kandel, 1994; Huang et al., 1994; Bolshakov et al., 1997). If overexpression of calcineurin directly affects the machinery necessary to produce the late phase, pharmacologically-induced L-LTP, that bypasses E- and I-LTP, would be impaired in CN98-mutant mice, as is the case with the late phase deficit in tPA-knockout mice (Huang et al., 1996a).
We tested the ability of both the D1/D5 receptor agonist 6-Br-APB (100 μM) and the PKA activator Sp-cAMPs (100 μM) to elicit slow-onset potentiation at the Schaffer collateral-CA1 synapse in CN98 mice.
For extracellular recordings, ACSF-filled glass electrodes (1-3 MΩ) were positioned in the stratum radiatum of area CA1. A bipolar nichrome stimulating electrode was also placed in stratum radiatum for stimulation of Schaffer collateral afferents (0.05 ms duration). […]

[3] = test system: calcineurin; assay: Phosphatase assay in hippocampal extracts; type: biochemical, mouse
Protocol: Phosphatase assays were performed according to Hubbard and Klee (1991). Briefly, mice were injected with 5 ml/kg of pentobarbital and decapitated. Hippocampi were dissected out, homogenized in 2 mM EDTA (pH 8), 250 mM sucrose, 0.1% Bmercaptoethanol and centrifuged. Supernatants were diluted in 40 mM Tris-HCl (pH 8), 0.1M NaCl, 0.04 mg/ml bovine serum albumin, 1 mM DTT, […] (Buffer 1) and incubated at 30° C. for 1 min in Buffer 1 containing 1 mM of the peptide [γ^32P]-RII subunit of cyclic AMP-dependent protein kinase (PKA) and either 0.1 mM calmodulin (Sigma) and 0.66 mM Ca^2+ or 0.33 mM EGTA (pH 7.5). The peptide ^97[Ala]-RII (Peninsula Labs) was labeled with 0.3 roM [γ^32P]ATP (NEN) using 4 mg catalytic subunit of PKA (Fluka). The reaction was stopped with 5% TCA in 0.1 M KH2P04 and the enzyme activity was calculated as previously described (Klee et al., 1983) and is expressed in nmol Pi release/min/mg protein. The protein concentration was determined using the bicinchroninic acid protein assay kit (Sigma). All samples were performed in triplicate.
Phosphatase assays were performed as described in Winder et al., 1997. Briefly, mice were injected with 5 ml/kg of pentobarbital and decapitated. Hippocampi were dissected out, homogenized in 2 mM EDTA (pH 8), 250 mM sucrose, 0.1 k β-mercaptoethanol. Supernatants were incubated at 30° C. for 1 min in presence of the […] [Ala97]-RII peptide and either 0.1 mM calmodulin and 0.66 mM Ca^2+ or 0.33 mM EGTA. The reaction was stopped and the enzyme activity calculated previously as described (Klee et al., 1983; 1987). The activity was expressed in nmol Pi released/min/mg protein. The protein concentration was determined using the bicinchroninic acid protein assay kit (Sigma). All samples were performed in triplicate.

[4] = test system: Schaffer collateral-CA1 pyramidal cell synapse; type: cell-based, mouse; settings: wild-type slices
[5] = test system: Schaffer collateral-CA1 pyramidal cell synapse; assay: LTP induced by two 100 Hz trains in hippocampal slices; type: cell-based, mouse; settings: for LTP induced by two 100 Hz trains in mutant mice after pretreatment: Tet-CN279 mutant slices, 750 nM calyculin A for 30 minutes
Source text: In an attempt to isolate, in still another way, the novel intermediate phase in which PKA acts to suppress a phosphatase cascade we varied the number of tetanic trains of stimulation. One of the characteristics that distinguishes E-LTP from L-LTP is that weak stimuli such as a single 100 Hz train elicit E-LTP but not L-LTP. In contrast, to reliably induce L-LTP, 3-4 repeated 100 Hz trains are required. We therefore sought to determine if an intermediate phase of LTP could also be distinguished from these phases based on the strength of stimulus required. We elicited LTP with two 100 Hz trains spaced by 20 seconds. This protocol elicited LTP that was more robust than that elicited by one 100 Hz train, but less maintained than that elicited by four trains (FIG. 14C). In contrast to LTP elicited by a single 100 Hz train which is not affected by inhibitors of PKA (Huang et al., 1996), LTP elicited by two trains was partially sensitive to the PKA inhibitor KT5720 (no drug: […]; 1 μM KT5720: 153±5% of baseline at 1 hr, 5 slices, 4 mice; […]; FIG. 14D). […] These two types of experiments reveal a novel intermediate phase of LTP (I-LTP) exists that requires 1) a stronger stimulus than E-LTP, and 2) the activation of PKA.
Transverse hippocampal slices were prepared as previously described (Huang and Kandel, 1994). Mice of either sex, aged 7-18 weeks were used. In all appropriate cases, the experimenter was blinded to animal genotype. Hippocampi was rapidly unilaterally dissected out on ice, and […] slices were cut on a McIlwain tissue chopper and placed in oxygenated ACSF (NaCl, 124 mM, KCl, 4.4 mM; CaCl2, 2.5 mM; MgSO4, 1.3 mM; NaH2PO4, 1 mM; glucose, 10 mM; and NaHCO3 26 mM). The slices were then transferred to an interface chamber where they were subfused with oxygenated ACSF (1-2 ml/min) and allowed to equilibrate for 60-90 min at 28° C.
For extracellular recordings, ACSF-filled glass electrodes (1-3 MΩ) were positioned in the stratum radiatum of area CA1. A bipolar nichrome stimulating electrode was also placed in stratum radiatum for stimulation of Schaffer collateral afferents (0.05 ms duration). Unless otherwise mentioned, test stimuli were applied at a frequency of 1 per minute (0.017 Hz), and at a stimulus intensity that elicits a fEPSP slope that was 35% of the maximum. Experiments in which a significant change in the fiber volley amplitude occurred, were discarded. Drugs were applied through the perfusion medium. DL-AP5, calyculin A, KT5720 and R(+)-6-Bromo-[…]-3-allyl-1-phenyl-2,3,4-tetrahydro-1H-3-benzazepine (6-Br-APB) were purchased from Research Biochemicals International, Natick, Mass. DL-AP5 was dissolved directly into ACSF prior to use. Calyculin A, KT5720 and 6-Br-APB were dissolved as 100× stocks in DMSO and diluted into ACSF just before use. Sp-cAMPS (Biolog, La Jolla, Calif.) was dissolved directly in ACSF.

[6] = test system: wild-type mice; assay: Effect of doxycycline itself on memory of wild-type mice; type: in vivo, mouse
[7] = test system: CaMKII; assay: CaMKII enzyme activity in striatum of B21 double transgenic mice on doxycycline; type: in vivo, mouse
Protocol: In double transgenic mice, a high level of expression of the CaMKII-Asp mRNA was obtained (FIGS. 5B and 7A-D). To determine the effect of this expression on enzyme activity. CaMKII activity was measured in the striatum of the B21 line of mice (Table 1).
Brains were removed and the striatum was dissected and immediately homogenized in 20 mM tris-HCl (pH 7.5), 0.5 mM EGTA, 0.5 mM EDTA, 2 mM leupeptin, 0.4 mM dithiothreitol, 0.1 mM phenylmethysulfonyl flouride, 0.4 mM molybdate, and 10 mM sodium pyrophosphate. CaMKII enzyme activity was determined as described (Mayford et al., 1995). B21+Dox animals received doxycycline (1 mg/ml) plus 5% sucrose in the drinking water for 3 to 5 weeks. B21+Dox withdrawal animals received doxycycline (1 mg/ml) for 3 to 5 weeks and were then switched to normal water for 6 weeks. The number of mice is given in parentheses.

[8] = test system: Schaffer collateral LTP in CA1 of hippocampal slices; assay: 10-Hz LTP in CA1 of hippocampal slices (field EPSP slope); type: cell-based, mouse; settings: doxycycline 1 mg/ml drinking water 2 to 3 weeks, 1 ng/ml in perfusate
[9] = Dox withdrawal: doxycycline 1 mg/ml 3 to 5 weeks, then normal water 6 weeks
[10] = doxycycline 1 mg/ml plus 5% sucrose in drinking water 3 to 5 weeks

SMILES: NC(CCCP(=O)(O)O)C(=O)O (racemic) [DL-A95, DL-AP5]
- NMDA-mediated field potentials in 10 μM DNQX and reduced Mg2+ (50 μM) [1]: completely antagonized

SMILES: C=CCN1CCc2c(cc(O)c(O)c2Br)[C@@H](c2ccccc2)C1 [6-Br-APB, R(+)-6-Bromo-7,0-dihydroxy-3-allyl-1-phenyl-2,3,4-tetrahydro-1H-3-benzazepine]
- fEPSP slope, % of baseline at 3 hr after drug application ([2]; CN98 mutant, 6-Br-APB 100 μM): 181±41%

- phosphatase enzyme activity in hippocampal extracts ([3]; CN98 mutant + EGTA): 0.32±0.14 nmol Pi/min/mg
- phosphatase activity ([3]; CN98 mutant and wild-type hippocampal extracts in the presence of EGTA): virtually abolished
- phosphatase enzyme activity in hippocampal extracts ([3]; CN98 wild-type + EGTA): 0.427±0.16 nmol Pi/min/mg
- phosphatase enzyme activity in hippocampal extracts ([3]; mutant (Tet-CN279+Tet-CN273) + EGTA): 0.287±0.17 nmol Pi/min/mg
- phosphatase enzyme activity in hippocampal extracts ([3]; wild-type (Tet-CN279+Tet-CN273) + EGTA): 0.432 ± 0.11 nmol Pi/min/mg
SMILES: O=C(O)CN(CCOCCOCCN(CC(=O)O)CC(=O)O)CC(=O)O [EGTA]

SMILES: CCCCCCOC(=O)[C@]1(O)C[C@@H]2O[C@@]1(C)n1c3ccccc3c3c4c(c5c6ccccc6n2c5c31)C(=O)NC4 [KT5720]
- decay of LTP induced by four 100 Hz trains, compared with anisomycin ([4]; KT5720 1 μM, 20 minute pretreatment, anisomycin 30 μM one hour prior to tetanus): much more rapid decay
- fEPSP slope, % of baseline at 1 hr after two 100 Hz trains ([5]; wild-type slices, 1 μM KT5720): 153±5%

SMILES: Nc1ncnc2c1ncn2[C@@H]1O[C@@H]2COP(O)(=S)O[C@H]2[C@H]1O (stereo partly drawn) [Sp-cAMPS]
- fEPSP slope, % of baseline at 3 hr after drug application ([2]; CN98 wild-type, printed as Sp-cAMPS application, 100 μM): 204±40%
- fEPSP slope, % of baseline at 3 hr after drug application ([2]; wild-type, Sp-cAMPS 100 μM): 124±13%

SMILES: COc1ccc(C[C@H]2NC[C@H](O)[C@H]2OC(C)=O)cc1 [anisomycin]
- LTP induced by four trains ([4]; anisomycin 30 μM): reduced
- sensitivity of LTP elicited by two trains to preincubation with the drug ([5]; wild-type slices, anisomycin 30 μM): completely insensitive

SMILES: COC[C@@H]([C@H](O)[C@H](O)C(=O)NCC[C@H](C)c1nc(/C=C/C[C@@H]2O[C@]3(C[C@@H](O)[C@@H]2C)O[C@H]([C@H](C[C@H](O)[C@H](C)[C@H](O)[C@H](C)/C=C(C)/C(C)=C/C=C/C(C)=C\C#N)OC)[C@H](OP(=O)(O)O)C3(C)C)co1)N(C)C [calyculin A]
- LTP induced by two 100 Hz trains in mutant mice after pretreatment [5]: indistinguishable from that seen in wild-type
- LTP induced by two 100 Hz trains in mutant mice after pretreatment ([5]; listed as Calyculin A): rescues the deficit

- memory ([6]; doxycycline treatment in the adult animal): did not affect memory
- adult spatial memory and memory for fear conditioning ([6]; wild-type mice, doxycycline 1 mg/ml during development): impaired
SMILES: C[C@H]1c2cccc(O)c2C(=O)C2=C(O)[C@]3(O)C(=O)C(C(N)=O)=C(O)[C@@H](N(C)C)[C@@H]3[C@@H](O)[C@@H]21 [doxycycline]
- CaMKII Activity Ca^2+-independent (%) [7, 9]: 5.70 ± 0.43%
- CaMKII Activity With Ca^2+ [7, 9]: 14.2 ± 0.7 pmol/min/µg
- CaMKII Activity Without Ca^2+ [7, 9]: 0.80 ± 0.03(3) pmol min^−1 μg^−1
- CaMKII Activity Ca^2+-independent (%) [7, 10]: 1.22 ± 0.03%
- CaMKII Activity With Ca^2+ [7, 10]: 12.9 ± 1.5 pmol/min/µg
- CaMKII Activity Without Ca^2+ [7, 10]: 0.16 ± 0.04(5) pmol min^−1 μg^−1
- field EPSP slope as percentage of pre-tetanus baseline after 10-Hz tetanus ([8]; B13 double transgenic mice): 132±10%
- field EPSP slope as percentage of pre-tetanus baseline after 10-Hz tetanus ([8]; wild-type mice): 122±6%
- fEPSP slope, % of baseline at 1 hr after two trains ([5]; Tet-CN279 on doxycycline (mutant sentence), 1 mg/ml in water supply, 1 ng/ml in ACSF): 184±18%
- fEPSP slope, % of baseline at 1 hr after two trains ([5]; printed 'Tet-CN279 mutant mice on doxycycline' in the sentence on wild-type mice on or off doxycycline): 191±18%
